In US20250332266A1, “COMPOUNDS FOR THE DEGRADATION OF EGFR KINASE” (BeiGene Switzerland GmbH, priority 2022, published 2025):

Legend:
[1] = target: EGFR Del19/T790M/C797S (H1975-clone #28) (Homo sapiens, UniProt P00533, T790M/C797S, form not given); test: EGFR degradation, HTRF total-EGFR assay, H1975-clone #28 (DTC); assay type: cell-based; conditions: H1975-clone #28 Del19/T790M/C797S, 16 h treatment
Procedure, shortened: (§1)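 H1975 clones with endogenous EGFR knocked out and homozygous exogenous EGFR mutants (#28 Del19/T790M/C797S; #25 L858R/T790M/C797S) treated 16 h at 37 °C, 8 doses, 5-fold from 10 μM, 0.2% DMSO. Total EGFR measured by HTRF on lysates, normalised to DMSO controls; DC50 and Dmax from curve fit.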

[2] = target: T1, EGFR L858R/T790M/C797S (H1975-clone #25) (Homo sapiens, UniProt P00533, C797S/L858R/T790M); test: EGFR degradation, HTRF total-EGFR assay, H1975-clone #25 (LTC); assay type: cell-based; conditions: H1975-clone #25 L858R/T790M/C797S, 16 h treatment
T1 construct: expressed in transfected cells; host or cells: H1975 (clone #25), lentiviral transduction, endogenous EGFR knocked out
T1 sequence (P00533 25-1210 T790M/C797S/L858R): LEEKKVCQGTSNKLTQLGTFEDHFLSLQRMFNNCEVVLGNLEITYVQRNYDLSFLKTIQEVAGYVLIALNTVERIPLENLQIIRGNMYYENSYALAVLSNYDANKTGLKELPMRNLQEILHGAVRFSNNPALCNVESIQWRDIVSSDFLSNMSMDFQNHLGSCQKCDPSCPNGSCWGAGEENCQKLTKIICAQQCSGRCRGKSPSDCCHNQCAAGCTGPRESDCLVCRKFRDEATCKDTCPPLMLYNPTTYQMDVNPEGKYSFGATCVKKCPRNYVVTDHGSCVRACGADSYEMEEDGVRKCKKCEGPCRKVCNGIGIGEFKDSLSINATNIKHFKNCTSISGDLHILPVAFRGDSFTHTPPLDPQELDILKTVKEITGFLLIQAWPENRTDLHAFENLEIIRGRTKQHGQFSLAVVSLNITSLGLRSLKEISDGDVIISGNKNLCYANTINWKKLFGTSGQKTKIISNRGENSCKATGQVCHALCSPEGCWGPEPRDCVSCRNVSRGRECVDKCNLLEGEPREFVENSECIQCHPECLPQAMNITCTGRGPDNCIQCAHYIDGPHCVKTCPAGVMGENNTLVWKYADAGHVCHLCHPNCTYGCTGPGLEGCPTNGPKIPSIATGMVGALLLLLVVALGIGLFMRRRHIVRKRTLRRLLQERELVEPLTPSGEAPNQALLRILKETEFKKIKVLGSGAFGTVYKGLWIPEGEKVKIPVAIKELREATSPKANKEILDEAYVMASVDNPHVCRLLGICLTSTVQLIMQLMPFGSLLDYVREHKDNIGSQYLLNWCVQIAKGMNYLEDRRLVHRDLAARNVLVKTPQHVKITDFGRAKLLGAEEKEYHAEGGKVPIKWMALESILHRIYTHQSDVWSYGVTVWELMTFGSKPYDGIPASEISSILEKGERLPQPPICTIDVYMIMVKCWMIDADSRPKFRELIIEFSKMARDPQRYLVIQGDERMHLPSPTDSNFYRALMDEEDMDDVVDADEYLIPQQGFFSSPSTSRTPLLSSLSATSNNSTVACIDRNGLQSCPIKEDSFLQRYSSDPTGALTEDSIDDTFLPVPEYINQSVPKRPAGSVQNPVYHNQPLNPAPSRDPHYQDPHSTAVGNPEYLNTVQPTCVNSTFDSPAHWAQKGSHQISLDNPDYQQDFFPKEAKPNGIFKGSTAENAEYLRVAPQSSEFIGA
Procedure, shortened: as §1

Chain of EGFR Del19/T790M/C797S (H1975-clone #28) (P00533 with tags, fused parts or gaps DEL746-750/T790M/C797S, form open): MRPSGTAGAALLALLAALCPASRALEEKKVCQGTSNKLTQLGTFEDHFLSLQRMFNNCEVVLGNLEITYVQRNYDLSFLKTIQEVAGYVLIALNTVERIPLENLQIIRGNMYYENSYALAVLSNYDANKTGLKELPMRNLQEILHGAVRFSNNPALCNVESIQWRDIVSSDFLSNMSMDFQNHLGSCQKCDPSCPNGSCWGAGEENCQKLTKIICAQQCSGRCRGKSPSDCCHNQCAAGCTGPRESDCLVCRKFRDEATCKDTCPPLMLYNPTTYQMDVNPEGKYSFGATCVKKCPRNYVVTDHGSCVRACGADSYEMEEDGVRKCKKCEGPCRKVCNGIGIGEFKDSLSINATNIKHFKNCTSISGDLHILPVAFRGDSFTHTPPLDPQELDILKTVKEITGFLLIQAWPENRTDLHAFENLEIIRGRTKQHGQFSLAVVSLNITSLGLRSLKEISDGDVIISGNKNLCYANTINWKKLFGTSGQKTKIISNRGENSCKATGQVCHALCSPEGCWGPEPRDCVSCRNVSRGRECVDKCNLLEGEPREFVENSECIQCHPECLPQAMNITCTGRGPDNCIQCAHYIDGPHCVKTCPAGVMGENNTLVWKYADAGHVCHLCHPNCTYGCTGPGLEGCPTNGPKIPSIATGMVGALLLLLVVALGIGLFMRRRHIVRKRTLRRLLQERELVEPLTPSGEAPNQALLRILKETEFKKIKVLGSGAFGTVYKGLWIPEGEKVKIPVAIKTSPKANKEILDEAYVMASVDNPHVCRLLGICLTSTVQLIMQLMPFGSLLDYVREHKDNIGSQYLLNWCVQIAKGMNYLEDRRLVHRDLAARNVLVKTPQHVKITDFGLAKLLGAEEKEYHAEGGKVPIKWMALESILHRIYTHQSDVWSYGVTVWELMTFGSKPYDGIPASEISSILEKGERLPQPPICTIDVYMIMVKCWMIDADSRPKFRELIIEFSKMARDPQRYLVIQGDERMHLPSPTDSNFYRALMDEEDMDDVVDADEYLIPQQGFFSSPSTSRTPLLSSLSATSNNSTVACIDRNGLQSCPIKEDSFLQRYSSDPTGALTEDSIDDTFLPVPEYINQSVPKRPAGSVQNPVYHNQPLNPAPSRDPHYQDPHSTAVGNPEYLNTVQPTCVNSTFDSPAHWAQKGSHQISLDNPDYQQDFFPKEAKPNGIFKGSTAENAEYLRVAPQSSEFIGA

| Structure (SMILES) | Degradation H1975 # 28 DTC [1] | Degradation H1975 # 25-LTC [2] |
| --- | --- | --- |
| Cc1cc2cc(n1)-c1cnn(C)c1OC[C@H]1C[C@@H](CN3/C(=N/C2=O)Nc2ccc(N4CCN(CC5CN(c6cnc(C7CCC(=O)NC7=O)cc6C)C5)C[C@@H]4C)cc23)C1 (stereo partly drawn) [Example 37, 3-(5-(3-(((S)-4-((7^1s,7^3R,E)-1^1,2^6-dimethyl-3-oxo-5^2,5^3-dihydro-1^1H,5^1H-9-oxa-4-aza-5(2,1)-benzo[d]imidazola-2(2,4)-pyridina-1(4,5)-pyrazola-7(1,3)-cyclobutanacyclononaphane-5^6-yl)-3-methylpiperazin-1-yl)methyl)azetidin-1-yl)-4-methylpyridin-2-yl)piperidine-2,6-dione] | 79.4 | 80.7 |
| Cc1cc2cc(n1)-c1cnn(C)c1OC[C@H]1C[C@@H](CN3/C(=N/C2=O)Nc2ccc(N(C)C4CN(C5CCN(c6cnc(C7CCC(=O)NC7=O)cc6C)CC5)C4)cc23)C1 (stereo partly shown) [Example 41, 3-(5-(4-(3-(((7^1s,7^3s,E)-1^1,2^6-dimethyl-3-oxo-5^2,5^3-dihydro-1^1H,5^1H-9-oxa-4-aza-5(2,1)-benzo[d]imidazola-2(2,4)-pyridina-1(4,5)-pyrazola-7(1,3)-cyclobutanacyclononaphane-5^6-yl)(methyl)amino)azetidin-1-yl)piperidin-1-yl)-4-methylpyridin-2-yl)piperidine-2,6-dione] | 80.1 | 84.2 |
| Cc1cc2cc(n1)-c1cnn(C)c1OC[C@H]1C[C@@H](CN3/C(=N/C2=O)Nc2ccc(N4C[C@H]5C[C@@H]4CN5C4CCN(c5ccc(C6CCC(=O)NC6=O)nc5C)CC4)cc23)C1 (stereo partly drawn) [Example 43, 3-(5-(4-((1R,4R)-5-((7^1s,7^3S,E)-1^1,2^6-dimethyl-3-oxo-5^2,5^3-dihydro-1^1H,5^1H-9-oxa-4-aza-5(2,1)-benzo[d]imidazola-2(2,4)-pyridina-1(4,5)-pyrazola-7(1,3)-cyclobutanacyclononaphane-5^6-yl)-2,5-diazabicyclo[2.2.1]heptan-2-yl)piperidin-1-yl)-6-methylpyridin-2-yl)piperidine-2,6-dione] | 75.5 | 87.1 |
| Cc1cc2cc(n1)-c1cnn(C)c1OC[C@H]1C[C@@H](CN3/C(=N/C2=O)Nc2ccc(N4CCC(N5CCN(c6cc(F)c([C@H]7CCC(=O)NC7=O)c(F)c6)CC5=O)CC4)cc23)C1 [Example 70, (R)-3-(4-(4-(1-((7^1s,7^3s,E)-1^1,2^6-dimethyl-3-oxo-5^2,5^3-dihydro-1^1H,5^1H-9-oxa-4-aza-5(2,1)-benzo[d]imidazola-2(2,4)-pyridina-1(4,5)-pyrazola-7(1,3)-cyclobutanacyclononaphane-5^6-yl)piperidin-4-yl)-3-oxopiperazin-1-yl)-2,6-difluorophenyl)piperidine-2,6-dione] | 88.7 | 91.8 |
| Cc1cc2cc(n1)-c1cnn(C)c1OC[C@H]1C[C@@H](CN3/C(=N/C2=O)Nc2ccc(N4CCN(CCc5ccc(C6CCC(=O)NC6=O)nc5C)CC4)cc23)C1 (stereo partly shown) [Example 82, 3-(5-(2-(4-((7^1s,7^3s,E)-1^1,2^6-dimethyl-3-oxo-5^2,5^3-dihydro-1^1H,5^1H-9-oxa-4-aza-5(2,1)-benzo[d]imidazola-2(2,4)-pyridina-1(4,5)-pyrazola-7(1,3)-cyclobutanacyclononaphane-5^6-yl)piperazin-1-yl)ethyl)-6-methylpyridin-2-yl)piperidine-2,6-dione] | 79.5 | 90.3 |
| Cc1cc2cc(n1)-c1cnn(C)c1OC[C@H]1C[C@@H](CN3/C(=N/C2=O)Nc2ccc(N4CCC(N5CCN(c6cnc(C7CCC(=O)NC7=O)cc6C)C[C@@H]5C)CC4)cc23)C1 (stereo partly drawn) [Example 110, 3-(5-((S)-4-(1-((7^1s,7^3R,E)-1^1,2^6-dimethyl-3-oxo-5^2,5^3-dihydro-1^1H,5^1H-9-oxa-4-aza-5(2,1)-benzo[d]imidazola-2(2,4)-pyridina-1(4,5)-pyrazola-7(1,3)-cyclobutanacyclononaphane-5^6-yl)piperidin-4-yl)-3-methylpiperazin-1-yl)-4-methylpyridin-2-yl)piperidine-2,6-dione] | 82.2 | 90.3 |
| Cc1cc2cc(n1)-c1cnn(C)c1OC[C@H]1C[C@@H](CN3/C(=N/C2=O)Nc2ccc(N(C)C4CC5(C4)CN(C4CCN(c6ccc(C7CCC(=O)NC7=O)nc6C)CC4)C5)cc23)C1 (stereo partly shown) [Example 112, 3-(5-(4-(6-(((7^1s,7^3s,E)-1^1,2^6-dimethyl-3-oxo-5^2,5^3-dihydro-1^1′H,5^1H-9-oxa-4-aza-5(2,1)-benzo[d]imidazola-2(2,4)-pyridina-1(4,5)-pyrazola-7(1,3)-cyclobutanacyclononaphane-5^6-yl)(methyl)amino)-2-azaspiro[3.3]heptan-2-yl)piperidin-1-yl)-6-methylpyridin-2-yl)piperidine-2,6-dione] | 75.2 | 85.2 |

Results, then the compound that gave them:

| Degradation H1975 # 28 DTC [1] | Degradation H1975 # 25-LTC [2] | Structure (SMILES) |
| --- | --- | --- |
| 91.5 | 93.6 | Cc1cc2cc(n1)-c1cnn(C)c1OC[C@H]1C[C@@H](CN3/C(=N/C2=O)Nc2ccc(N4CCN(C5CCN(c6cnc(C7CCC(=O)NC7=O)cc6C)CC5)CC4)cc23)C1 (stereo partly shown) [Example 40, 3-(5-(4-(4-((7^1s,7^3s,E)-1^1,2^6-dimethyl-3-oxo-5^2,5^3-dihydro-1^1H,5^1H-9-oxa-4-aza-5(2,1)-benzo[d]imidazola-2(2,4)-pyridina-1(4,5)-pyrazola-7(1,3)-cyclobutanacyclononaphane-5^6-yl)piperazin-1-yl)piperidin-1-yl)-4-methylpyridin-2-yl)piperidine-2,6-dione] |
| 80.7 | 91.3 | Cc1cc2cc(n1)-c1cnn(C)c1OC[C@H]1C[C@@H](CN3/C(=N/C2=O)Nc2ccc(N4CCC(N5CCN(c6ccc(C7CCC(=O)NC7=O)nc6C)C[C@@H]5C)CC4)cc23)C1 (stereo partly drawn) [Example 44, 3-(5-((S)-4-(1-((7^1s,7^3R,E)-1^1,2^6-dimethyl-3-oxo-5^2,5^3-dihydro-1^1H,5^1H-9-oxa-4-aza-5(2,1)-benzo[d]imidazola-2(2,4)-pyridina-1(4,5)-pyrazola-7(1,3)-cyclobutanacyclononaphane-5^6-yl)piperidin-4-yl)-3-methylpiperazin-1-yl)-6-methylpyridin-2-yl)piperidine-2,6-dione] |
| 78.5 | 93.3 | Cc1cc2cc(n1)-c1cnn(C)c1OC[C@H]1C[C@@H](CN3/C(=N/C2=O)Nc2ccc(N4CCC(N5C[C@@H]6C[C@H]5CN6c5ccc(C6CCC(=O)NC6=O)nc5C)CC4)cc23)C1 (stereo partly drawn) [Example 47, 3-(5-((1S,4S)-5-(1-((7^1s,7^3R,E)-1^1,2^6-dimethyl-3-oxo-5^2,5^3-dihydro-1′H,5^1H-9-oxa-4-aza-5(2,1)-benzo[d]imidazola-2(2,4)-pyridina-1(4,5)-pyrazola-7(1,3)-cyclobutanacyclononaphane-5^6-yl)piperidin-4-yl)-2,5-diazabicyclo[2.2.1]heptan-2-yl)-6-methylpyridin-2-yl)piperidine-2,6-dione] |
| 87.5 | 89.9 | Cc1cc2cc(n1)-c1cnn(C)c1OC[C@H]1C[C@@H](CN3/C(=N/C2=O)Nc2ccc(N4CCN([C@@H]5CCN(c6ccc(C7CCC(=O)NC7=O)nc6C)C[C@H]5F)CC4)cc23)C1 (stereo partly drawn) [Example 57, 3-(5-((3R,4R)-4-(4-((7^1s,7^3S,E)-1^1,2^6-dimethyl-3-oxo-5^2,5^3-dihydro-1^1H,5^1H-9-oxa-4-aza-5(2,1)-benzo[d]imidazola-2(2,4)-pyridina-1(4,5)-pyrazola-7(1,3)-cyclobutanacyclononaphane-5^6-yl)piperazin-1-yl)-3-fluoropiperidin-1-yl)-6-methylpyridin-2-yl)piperidine-2,6-dione] |
| 89.1 | 91.5 | Cc1cc2cc(n1)-c1cnn(C)c1OC[C@H]1C[C@@H](CN3/C(=N/C2=O)Nc2ccc(N4CCN([C@@H]5CCN(c6ccc(C7CCC(=O)NC7=O)nc6C)C[C@@H]5F)CC4)cc23)C1 (stereo partly drawn) [Example 62, 3-(5-((3S,4R)-4-(4-((7^1s,7^3S,E)-1^1,2^6-dimethyl-3-oxo-5^2,5^3-dihydro-1^1H,5^1H-9-oxa-4-aza-5(2,1)-benzo[d]imidazola-2(2,4)-pyridina-1(4,5)-pyrazola-7(1,3)-cyclobutanacyclononaphane-5^6-yl)piperazin-1-yl)-3-fluoropiperidin-1-yl)-6-methylpyridin-2-yl)piperidine-2,6-dione] |
| 82.1 | 75.9 | Cc1cc2cc(n1)-c1cnn(C)c1OC[C@H]1C[C@@H](CN3/C(=N/C2=O)Nc2ccc(N4CCN([C@@H]5CCN(c6cc(F)c([C@H]7CCC(=O)NC7=O)c(F)c6)C[C@@H]5F)CC4)cc23)C1 [Example 66, (R)-3-(4-((3S,4R)-4-(4-((7^1s,7^3S,E)-1^1,2^6-dimethyl-3-oxo-5^2,5^3-dihydro-1^1H,5^1H-9-oxa-4-aza-5(2,1)-benzo[d]imidazola-2(2,4)-pyridina-1(4,5)-pyrazola-7(1,3)-cyclobutanacyclononaphane-5^6-yl)piperazin-1-yl)-3-fluoropiperidin-1-yl)-2,6-difluorophenyl)piperidine-2,6-dione] |
| 81.0 | 90.4 | COC[C@@H]1CN(c2ccc3c(c2)N2C[C@H]4C[C@@H](COc5c(cnn5C)-c5cc(cc(C)n5)C(=O)/N=C/2N3)C4)CCN1C1CCN(c2ccc(C3CCC(=O)NC3=O)nc2C)CC1 (stereo partly shown) [Example 109] |
